{"source": "patent US20210188856A1", "about": "“CRYSTAL FORM OF HYDROCHLORIDE OF PYRAZOLOHETEROARYL DERIVATIVE AND PREPARATION METHOD” (JIANGSU HENGRUI MEDICINE CO., LTD., priority 2018, published 2021)", "target": "T1, human TLR8 (Homo sapiens, UniProt Q9NR97)", "T1 construct": "host or cells: HEK-Blue hTLR8 (HEK293-derived) stably transfected cells", "T1 sequence (Q9NR97 27-1041)": "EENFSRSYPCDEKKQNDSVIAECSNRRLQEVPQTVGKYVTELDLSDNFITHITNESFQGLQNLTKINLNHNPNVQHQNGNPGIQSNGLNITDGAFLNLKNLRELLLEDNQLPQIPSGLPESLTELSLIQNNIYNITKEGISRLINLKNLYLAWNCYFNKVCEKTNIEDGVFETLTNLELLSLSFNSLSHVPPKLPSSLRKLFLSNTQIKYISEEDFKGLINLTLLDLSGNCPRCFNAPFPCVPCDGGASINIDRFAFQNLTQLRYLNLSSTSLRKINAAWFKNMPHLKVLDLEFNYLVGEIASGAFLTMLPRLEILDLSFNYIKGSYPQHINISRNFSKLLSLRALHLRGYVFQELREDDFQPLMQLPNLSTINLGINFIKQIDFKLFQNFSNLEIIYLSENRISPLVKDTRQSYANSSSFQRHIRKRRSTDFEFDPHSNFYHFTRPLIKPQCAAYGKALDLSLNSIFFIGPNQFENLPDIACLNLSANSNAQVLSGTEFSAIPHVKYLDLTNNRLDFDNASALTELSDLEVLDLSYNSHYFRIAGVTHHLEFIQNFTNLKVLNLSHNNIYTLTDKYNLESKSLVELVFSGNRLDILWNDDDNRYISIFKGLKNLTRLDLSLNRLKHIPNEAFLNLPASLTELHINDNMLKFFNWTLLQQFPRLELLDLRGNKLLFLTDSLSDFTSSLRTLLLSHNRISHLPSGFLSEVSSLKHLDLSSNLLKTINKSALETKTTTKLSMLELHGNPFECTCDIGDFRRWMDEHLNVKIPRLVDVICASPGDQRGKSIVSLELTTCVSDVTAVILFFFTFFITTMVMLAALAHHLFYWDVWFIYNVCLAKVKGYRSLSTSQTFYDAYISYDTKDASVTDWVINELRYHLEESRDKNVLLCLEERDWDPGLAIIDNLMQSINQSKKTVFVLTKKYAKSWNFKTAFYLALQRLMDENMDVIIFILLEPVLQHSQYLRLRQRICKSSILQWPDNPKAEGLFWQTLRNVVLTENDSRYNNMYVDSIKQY", "assay": "Agonistic effect on human TLR8 (HEK-Blue hTLR8 cells)", "format": "cell-based", "description": "The agonistic effect of the compound represented by formula (I) on the hTLR8 protein expressed in HEK-Blue™ hTLR8 stably transfected cells was determined by the following experimental method:\nA bag of HEK-Blue detection dry powder was dissolved in 50 mL of water free of endotoxin, and the solution was then placed in an incubator at 37° C. for 10 minutes followed by sterile filtration to prepare a HEK-Blue detection medium. The compound was firstly formulated into a 20 mM stock solution, then diluted with pure DMSO to a maximum concentration of 6×10^6 nM, and a total of 10 points were obtained by a 3-fold gradient dilution. The compound was firstly diluted 20-fold with the medium, then 20 μL of the diluted compound was added to each well.\nThe supernatant was removed from the HEK-Blue™ hTLR8 cells, to which 2-5 mL of pre-warmed PBS was then added. The cells were placed in an incubator for 1-2 minutes, gently pipetted, and counted by trypan blue staining. The cells were re-suspended in the HEK-Blue detection medium and the concentration was adjusted to 2.2×10^5 cells/mL. 180 μL of cells was added to the above 96-well plate added with 20 μL of the compound, and incubated at 37° C. for 6-16 hours.\nThe plate was read with a microplate reader at a wavelength of 620 nm. The corresponding OD values were obtained, and the EC50 value of the compound was calculated by Graphpad Prism.", "data": [{"compound": "CCCCOc1nc(N)c2cnn(Cc3ccc(CN4CCCC4)cc3)c2n1", "note": "[compound represented by formula (I), 6-Butoxy-1-(4-(pyrrolidin-1-ylmethyl)benzyl)-1H-pyrazolo[3,4-d]pyrimidin-4-amine]", "values": [{"measurement": "agonistic effect on human TLR8 (in words)", "setting": "HEK-Blue hTLR8 cells", "value": "no agonistic effect"}, {"measurement": "selectivity for TLR7 over TLR8 (in words)", "setting": "from TLR7 and TLR8 results", "value": "high selectivity"}]}]}
